Values of other authors in patent publication EP0385476B2, “Physiologically active polypeptide and DNA” (SHIONOGI & CO., LTD., priority 1989, dated 1999).

System: chicken rectum
Settings: relative to ANP

Substance: porcine brain natriuretic peptide [pBNP]
- rectum relaxation activity, times higher than that of ANP: 3 to 4 times
